The record followed here is patent US12485107B2, “Methods for the prevention or treatment of cytokine storm” (Beth Israel Deaconess Medical Center, Inc., priority 2019, dated 2025).

The subject of series [1] is primary peritoneal murine macrophages. The class given is cell-based. The following applies: RFU, percent increase above vehicle-treated macrophages.
For series [2], the system named is RAW264.7 murine macrophages. Briefly: Annexin V/PI cell death analysis of RAW264.7 macrophages. The conditions noted are these: 5 μM, 24 hours, vs vehicle. It is filed as cell-based. The protocol: Murine (ID8) or human (OVCAR5) ovarian tumor cells were treated with vehicle or a chemotherapeutic agent (e.g., cisplatin, carboplatin, or paclitaxel) as described. B/CMBA.Ov murine ovarian epithelial cells were treated with vehicle or PTUPB (1 or 5 μM) for 24 hours. The floating population (e.g., dead cells or “debris”) was collected, and the remaining adhered cells were trypsinized and combined with the dead cells. RAW264.7 murine macrophages were treated with vehicle or PTUPB (5 μM) for 24 hours. The floating population was collected and the remaining adhered cells were detached using a cell scraper (Corning Inc., Corning, NY) and combined with the dead cells. Cells were counted via hemocytometer, pelleted, and resuspended in PBS at 1×10^6 cells/mL. Next, 2×10^5 cells were stained with annexin V and propidium iodide (PI) according to FITC Annexin V/Dead Cell Apoptosis Kit protocol (Life Technologies, Carlsbad, CA). Staining was assessed using the BD LSR Fortessa (BD Biosciences, San Jose, CA) at the Dana-Farber Cancer Institute Jimmy Fund Flow Cytometry Core, and analyzed using FlowJo software (Tree Star Inc., Ashland, OR). Experiments were performed three times with similar results.

Series [3] has as its system RAW264.7 murine macrophages. The class given is cell-based. The following applies: 5 μM, 2 hours pre-treatment.
Series [4] relates to RAW264.7 murine macrophages. Description: Cytokine arrays of RAW264.7 macrophages stimulated with gemcitabine-generated PancOH7 debris. It is filed as cell-based. The conditions noted are these: 5 μM, 2 hours pre-treatment. The protocol:
(A) Inflammatory and (B) angiogenic cytokine array of RAW264.7 murine macrophage conditioned media co-cultured with chemotherapy (gemcitabine)-generated murine pancreatic (PancOH7) tumor cell debris and pre-treated with vehicle or PTUPB (5 μM, 2 hours).
Inflammatory (FIG. 15A) and angiogenic (FIG. 15B) cytokine arrays of conditioned media from RAW264.7 macrophages treated with vehicle or PTUPB (5 uM) for 2 hours stimulated with gemcitabine-generated PancOH7 debris are shown in FIGS. 15A and 15B. “Cytokine storm” released by debris-stimulated macrophages is prevented by the dual COX-2/sEH inhibitor PTUPB.

In series [5] the test system is RAW 264.7 murine macrophages. Description: Inflammatory cytokine array of RAW264.7 macrophages stimulated with ethanol-generated MS-1 endothelial cell debris. It is filed as cell-based. The conditions noted are these: 5 μM (combination 2.5 μM each), 2 hours pre-treatment.
Series [6] relates to debris-stimulated intraperitoneal ovarian tumors (ID8). Briefly: Debris-stimulated intraperitoneal ID8 ovarian tumor model, survival. It is filed as in vivo, mice. On the procedure: All animal studies were reviewed and approved by the Animal Care and Use Committee of Beth Israel Deaconess Medical Center, Boston, MA Mice were housed at a maximum of 5 animals per cage in a pathogen-free facility with unlimited access to sterile water and chow. Daily welfare evaluations and animal sacrifices were carried out according to the Committee guidelines. For murine injections, chemotherapy-generated murine (ID8) or human (OVCAR5) ovarian tumor cell debris was combined with ID8 or OVCAR5 living cells at equal volumes in PBS. Six-week-old female C57BL/6 (The Jackson Laboratory, Bar Harbor, ME) or SCID mice (Charles River, Cambridge, MA) were injected subcutaneously or intraperitoneally with 100 μL/mouse of ID8 or OVCAR5 cells, respectively. For orthotopic injections, 6-week-old C57BL/6 female mice were injected with 20 μL/mouse of matrigel (Becton Dickinson and Company, Franklin Lakes, NJ) mixed with paclitaxel-generated ID8 debris and/or ID8 living cells at a 1:1 (matrigel:cells) ratio directly into the right ovarian bursa. Systemic treatment with PTUPB (30 mg/kg/day) or control was administered via mini-osmotic pumps (Alzet Inc., Cupertino, CA) implanted into the peritoneum of the mice 4 weeks post-injection. Treatment ended 28 days after implantation of the pumps. Systemic chemotherapy with carboplatin (10 mg/kg q 3 days) or control that were initiated on the day of tumor cell injection.
Statistical analyses for in vitro studies were performed using Student's two-tailed unpaired t-test. Data are represented as mean±S.E.M. with p-values less than 0.05 considered statistically significant. For in vivo studies, the Kaplan-Meier product-limit method and log-rank testing were used to evaluate survival differences over time after the day of tumor cell injection between mice co-injected with tumor cell debris and living cells vs. living cells alone. Data are represented as percent survival with p-values less than 0.01 considered statistically significant.

For series [7], the system named is RAW264.7 murine macrophages. Briefly: Inflammatory cytokine array of RAW264.7 macrophages stimulated with ethanol-generated Hepa 1-6 debris. The class given is cell-based. The following applies: 5 μM (combination 5 μM each), 2 hours pre-treatment. On the procedure:
Inflammatory cytokine array of RAW264.7 murine macrophage conditioned media co-cultured with ethanol-generated murine liver (Hepa 1-6) tumor cell debris and pre-treated for 2 hours with vehicle, PTUPB (5 μM), Ome-21i (5 μM), or Ome-21i+Celecoxib (5 μM each).
An inflammatory cytokine array of conditioned media from RAW264.7 macrophages treated with vehicle, PTUPB (5 μM), Ome-21i (5 μM), or Ome-21i (5 μM) and Celecoxib (5 μM) for 2 hours stimulated with ethanol-generated Hepa 1-6 debris is shown in FIG. 17. “Cytokine storm” released by debris-stimulated macrophages is prevented by the dual COX-2/sEH inhibitor PTUPB or sEH inhibitor Ome-21i and COX-2 inhibitor celecoxib.

Entries after “also recorded” stand apart in the source; their conditions may differ.

As for `NS(=O)(=O)c1ccc(-n2nc(CCCNC(=O)Nc3ccc(C(F)(F)F)cc3)cc2-c2ccccc2)cc1` [PTUPB, 4-(5-phenyl-3-{3-[3-(4-trifluoromethyl-phenyl)-ureido]propyl}-pyrazol-1-yl) benzenesulfonamide], in series [1], the “macrophage phagocytosis of aflatoxin B1-generated tumor cell debris, primary peritoneal murine macrophages” value is “stimulates macrophage phagocytosis”. Moreover, the “induction of cell death of RAW264.7 macrophages” value in series [2] is reported as “did not induce cell death”. Moreover, the “cytokine storm released by macrophages stimulated with aflatoxin B1-generated Hepa 1-6 debris” value in series [3] is on record as “prevents the aflatoxin B1-induced cytokine storm; also recorded: able to inhibit; also recorded: prevented”. Besides, in series [4], the “cytokine storm (inflammatory and angiogenic arrays) released by macrophages stimulated with gemcitabine-generated PancOH7 debris” value is “prevented”. The “cytokine storm by ethanol-generated endothelial cell (MS-1) debris” value in series [5] was “inhibited”. Further, in series [6] (PTUPB 30 mg/kg/day by mini-osmotic pump from 4 weeks post-injection, paclitaxel- or carboplatin-generated ID8 debris + ID8 living cells i.p.), the sustained survival entry was “over 120 days post-injection”. Further, the “survival compared to control (Kaplan-Meier, log-rank), paclitaxel-generated debris i.p. model” value in series [6] (PTUPB 30 mg/kg/day, log-rank test=9.70, p=0.0018) is given as “significantly prolonged survival”. Besides, in series [6] (PTUPB 30 mg/kg/day, log-rank test=9.85, p=0.0017), the “survival compared to control (Kaplan-Meier, log-rank), carboplatin-generated debris i.p. model” value is “significantly prolonged survival”. In addition, in series [7], the “cytokine storm released by macrophages stimulated with ethanol-generated Hepa 1-6 debris” value is given as “able to inhibit; also recorded: prevented”.
